Experiments:
[1] = test system: termite workers (gut protozoa); test: Defaunation of termites by feeding Metronidazole-treated filter paper; type: in vivo; conditions: for time to death of defaunated termites: Metronidazole feeding
Method: Using an aspirator, six groups of 100 termite workers each were collected and placed in Petri dishes containing damp filter paper. In addition, 10 soldiers were added to each group to enhance the overall survivorship rate. […] The remaining three groups of termites were transferred to Petri dishes containing paper that had been dampened with autoclaved tap water. All six replicates were transferred to an incubator and mortality was recorded every 24 hours. […] Once defaunation had been confirmed, all six groups were thereafter provided only with filter paper dampened with sterile tap water. Mortality was recorded each day. Statistically significant differences in mortality between treatment groups and control groups were established using 95% confidence intervals.

[2] = test system: termite protozoa (Pseudotrichonympha grassii Koidzumi, Holomastigotoides hartmanni Koidzumi, Spirotrichonympha leidyi Koidzumi); test: In vitro lytic peptide test on anaerobic cultures of termite hindgut protozoa; type: cell-based; conditions: 50 μM peptide, after 5-10 minutes
Text: (§1) Three protozoal species (Pseudotrichonympha grassii Koidzumi, Holomastigotoides hartmanni Koidzumi, and Spirotrichonympha leidyi Koidzumi) from the termite hindgut were maintained for 24 hrs in vitro, a sufficient time to allow testing of lytic peptides. The protozoa were removed from the termite hindgut in an anaerobic glove-box, and placed in sterile, sparged (Hydrogen 2.5%, Carbon dioxide 5% and Nitrogen 92.5%) Trager U (pH 7.0) saline solution. Positive controls for testing lytic peptides were established and validated with these cultures. The efficacy of the lytic peptides was then routinely tested prior to experiments to confirm both aerobic activity (using the “standard” T. pyriformis) and anaerobic activity (using cultures of the termite protozoa). One hundred percent mortality was observed after 5-10 minutes when any of these protozoa were treated with any one of three lytic peptides (hecate, melittin, or cecropin) at a 50 μM concentration, confirming the toxicity of the lytic peptides towards termite protozoa in an anaerobic environment that mimicked termite hindgut conditions.
(§2) The efficacy of each lytic peptide solution was confirmed using T. pyriformis and termite protozoa cultures in vitro before each microinjection test. A 5 ml overnight culture of T. pyriformis was washed three times in sterile 10 mM Tris-HCl (pH 7.4), and suspended in 1 ml 10 mM Tris-HCl (pH 7.4). Subsequently, 100 μl aliquots were placed in a Sigmacote™-treated, 96-well microplate. The lytic peptides were dissolved in 10 mM Tris-HCl. A range of concentrations (25-500 μM) of lytic peptide was added to each of several wells, and the remaining wells were treated with 10 mM Tris-HCl (pH 7.4) as control. After confirming aerobic activity of the lytic peptide concentrations against T. pyriformis, lytic peptide efficacy was then tested against anaerobic cultures of termite protozoa. Sparged lytic peptide was added anaerobically to the sparged cultures of termite protozoa, and mortality was observed.

Tetrahymena pyriformis = test: In vitro lytic peptide test on aerobic Tetrahymena pyriformis cultures; type: cell-based; conditions: 50 μM peptide, after 5-10 minutes
Method: The initial positive control for testing the efficacy of lytic peptide solutions was the aerobic, laboratory standard protozoan Tetrahymena pyriformis, cultures of which were purchased from Carolina Biological (#13-1182A) and maintained in proteose peptone media. Before each experiment, lytic peptide activity was tested using T. pyriformis.
as §1
as §2, with “After confirming aerobic activity of the lytic peptide concentrations against T. pyriformis, lytic peptide efficacy was then tested against anaerobic cultures of termite protozoa. Sparged lytic peptide was added anaerobically to the sparged cultures of termite protozoa, and mortality was observed.” left out

[3] = test system: protozoa in the hindgut of termite workers; test: In vivo microinjection of lytic peptides into the termite hindgut; conditions: for relative effectiveness against protozoa in vivo among peptides tested: hindgut microinjection, 50 μM; for time to defaunation of injected termite workers: ~0.5 μl of 50 μM lytic peptide injected into hindgut
Text: A termite microinjection protocol was used to confirm directly the effect of lytic peptide in the hindgut. We first optimized the protocol by finding preferred conditions for each of the following: the time to immobilize a termite by cooling on ice; suitable methods for anchoring the termite in place for microinjection; and the maximum volume that could consistently be injected into the hindgut without causing direct trauma. Microinjection directly to the termite hindgut avoided the possibility of peptide degradation by non-specific protease activity in the foregut or midgut.
Termite workers were immobilized by chilling on ice for 1.5 min, and were then mechanically aspirated, head-first, into a modified pipette tip that had been trimmed to expose the terminus of the termite. This “termite holder” was attached to a micromanipulator, and the insect was advanced to insert a Sigmacote™-treated, fine glass needle into the anus of the termite. Lytic peptide or control solution was injected under the control of a high-speed, electronic foot pedal with pulse length control, to ensure that a constant volume was reproducibly injected into each insect. Approximately 0.5 μl of 10 mM Tris-HCl (pH 7.4) (control) or 0.5 μl of 50 μM lytic peptide dissolved in 10 mM Tris-HCl (pH 7.4) was injected into the hindgut of each termite. A second control group of non-injected termite workers was also included. The termites were housed in 3 cm Petri dishes, in which damp filter paper was provided. At 24, 48, and 72 hrs guts from randomly selected termites from each treatment were extirpated, and observations were made of the presence and motility of protozoa.

[4] = test system: termite workers (gut protozoa); test: Termite feeding experiments with yeast expressing lytic peptide; type: in vivo; conditions: summary statement
Method: Lytic peptide-expressing and control Kluyveromyces lactis strains were used in termite feeding experiments. Aliquots of 2 ml YPGal in Sigmacote™-treated 15 ml Falcon tubes were inoculated with yeast, which were then grown for 3 days, with shaking at 225 rpm at 30° C. The strains grown were K. lactis engineered with the expression vector (control), K. lactis expressing the control protein MBP, and K. lactis expressing a lytic peptide gene (either hecate or hecate-GFP fusion). The cultures were washed three times with sterile, deionized water, and re-suspended in 500 μl sterile 10 mM galactose. Galactose was used because the coding sequences were under the control of the LAC4 promoter, a strong promoter whose activity is induced by galactose. Secretion of active lytic peptide by the transformed K. lactis into the growth media was verified using in vitro cultures of the protozoa T. pyriformis.
Termites were collected in New Orleans, La., and were maintained on damp cardboard in plastic buckets at room temperature. Only termites that had been held in the laboratory less than 4 weeks were used in the feeding experiments. […]
Termite mortality was recorded every three days. The number of viable termites was also recorded, as cannibalism in laboratory colonies has sometimes been observed. […]

[5] = test system: termite symbiotic protozoa; conditions: preliminary data, poster 2002; cited from earlier work

Row | Molecule | mortality of defaunated termites versus controls ([1]; 95% confidence intervals did not overlap) | time to death of defaunated termites [1] | time to death of defaunated termites ([1]; listed as metronidazole) | time to defaunation of termite workers ([1]; filter paper treated with 400 μL Metronidazole (2 g/L)) [days] | mortality of termite protozoa [2] | mortality of T. pyriformis (Tetrahymena pyriformis) | relative effectiveness against protozoa in vivo among peptides tested [3] | time to defaunation of injected termite workers [3] [h] | effect on protozoa in the termite gut [4] | time to death of the insect without protozoa [4] | killing of termite symbiotic protozoa in vitro [5]
1 | Cc1ncc([N+](=O)[O-])n1CCO [Metronidazole] | significantly higher mortality | six | six and about six | ≤ 7 |  |  |  |  |  |  | 
2 | CC[C@H](C)[C@H](NC(=O)CN)C(=O)NCC(=O)N[C@@H](C)C(=O)N[C@H](C(=O)N[C@@H](CC(C)C)C(=O)N[C@@H](CCCCN)C(=O)N[C@H](C(=O)N[C@@H](CC(C)C)C(=O)N[C@H](C(=O)N[C@H](C(=O)NCC(=O)N[C@@H](CC(C)C)C(=O)N1CCC[C@H]1C(=O)N[C@@H](C)C(=O)N[C@@H](CC(C)C)C(=O)N[C@H](C(=O)N[C@@H](CO)C(=O)N[C@@H](Cc1c[nH]c2ccccc12)C(=O)N[C@H](C(=O)N[C@@H](CCCCN)C(=O)N[C@@H](CCCNC(=N)N)C(=O)N[C@@H](CCCCN)C(=O)N[C@@H](CCCNC(=N)N)C(=O)N[C@@H](CCC(N)=O)C(=O)N[C@@H](CCC(N)=O)C(N)=O)[C@@H](C)CC)[C@@H](C)CC)[C@@H](C)O)[C@@H](C)O)C(C)C)C(C)C [melittin] |  |  |  |  | One hundred | One hundred | more effective against protozoa in vivo | 72 |  |  | 
3 | cecropin |  |  |  |  | One hundred | One hundred |  |  |  |  | 
4 | falalkalkk alkklkkalk kal (FALALKALKKALKKLKKALKKA; This is the designed peptide known as hecate.) |  |  |  |  | One hundred | One hundred | more effective against protozoa in vivo | 72 | kill all (or at least most) species of protozoa in the termite gut | about six | would kill termite symbiotic protozoa

Source: patent US20090047235A1, “Paratransgenesis to Control Termites or Other Social Insects” (priority 2007, published 2009)
